We go through one molecule from patent US6124291A, “Pyrrolo[1,2-a]pyrazine-1,4-dione serine protease inhibitors” (Warner-Lambert Company, priority 1998, dated 2000).

One test has as its target human thrombin (Homo sapiens, UniProt P00734). Nature of the test: Determination of Thrombin Ki (fluorogenic substrate Tos-Gly-Pro-Arg-AMC). It counts as biochemical. Conditions: 50 mM Tris-HCl pH 7.52 at 37° C., 0.1 M NaCl, 0.1% poly(ethylene glycol) 8000, room temperature. Here is the method:
Compounds of the present invention may be prepared for assay by dissolving them in buffer to give solutions ranging in concentrations from 1 to 100 μM. In an assay to determine the inhibitory dissociation constant, Ki, for a given compound, a chromogenic or fluorogenic substrate of thrombin is added to a solution containing a test compound and thrombin; the resulting catalytic activity of the enzyme is spectrophotometrically determined. This assay is well-known to those skilled in the art and is commonly used to determine antithrombotic activity.
The affinity of inhibitors for thrombin was measured according to the procedures described in (DiMaio, et al., J. Biol. Chem., 1990; 265:21698). Inhibition of amidolytic activity of human thrombin was measured fluorometrically using Tos-Gly-Pro-Arg-AMC as a fluorogenic substrate in 50 mM Tris-HCl buffer (pH 7.52 at 37° C.) containing 0.1 M NaCl and 0.1% poly(ethylene glycol) 8000 at room temperature. Buffer substrate and inhibitor were mixed, and the reaction was initiated by adding the enzyme solution. Initial velocities were recorded at several inhibitor and substrate concentrations. Kinetic parameters were determined by fitting the data to a general equation describing enzyme inhibition (Segel, Enzyme Kinetics, Wiley Interscience Publications, 1993). […]

In a further test the target is Factor Xa (Homo sapiens, UniProt P00742). Nature of the test: Determination of Factor Xa IC50 (chromogenic substrate S2765). Conditions: 60 minutes incubation at room temperature. It is filed as biochemical. Here is the method:
The ability of compounds to act as inhibitors of Factor Xa catalytic activity is assessed by determination of that concentration of test substance that inhibits by 50% (IC50) the ability of Factor Xa to cleave the chromogenic substrate S2765 (N-CBz-D-Arg-L-Gly-L-Arg-p-nitroanilide.cndot.2 HCl). Typically, Factor Xa in 10 mM HEPES, 100 mM NaCl, 0.05% BSA, and 0.1% PEG-8000 and the test substance in DMSO are incubated for 60 minutes at room temperature. To this mixture is added S2765 and the velocity of S2765 hydrolysis measured by observing the intensity of absorbance at 405 nm over 5 minutes.

Another test has as its target T1, trypsin (Bos taurus, UniProt P00760).
T1 sequence (P00760 24-246): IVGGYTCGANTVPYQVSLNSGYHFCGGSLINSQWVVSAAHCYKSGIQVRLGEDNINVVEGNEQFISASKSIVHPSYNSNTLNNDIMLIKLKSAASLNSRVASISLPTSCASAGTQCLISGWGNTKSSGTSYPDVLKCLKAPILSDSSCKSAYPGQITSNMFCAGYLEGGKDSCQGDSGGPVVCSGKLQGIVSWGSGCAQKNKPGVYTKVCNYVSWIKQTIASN
Nature of the test: Determination of Trypsin IC50 (chromogenic substrate S2222). It is filed as biochemical. The note with it: 60 minutes incubation at room temperature. Here is the method: The ability of compounds to act as inhibitors of trypsin catalytic activity is assessed by determination of that concentration of test substance that inhibits by 50% (IC50) the ability of trypsin to cleave the chromogenic substrate S2222 (N-Bz-L-Ile-L-Glu-L-Gly-L-Arg-p-nitroanilide.cndot.HCl). Typically, trypsin in 10 mM HEPES, 100 mM NaCl, 0.05% BSA, and 0.1% PEG-8000, and the test substance in DMSO are incubated for 60 minutes at room temperature. To this mixture is added S2222 and the velocity of S2222 hydrolysis measured by observing the intensity of absorbance at 405 nm over 5 minutes.

For a further test, the system named is carotid artery. Nature of the test: FeCl3-induced carotid arterial injury model (arterial thrombosis). It is filed as in vivo, rat (male Sprague-Dawley). Conditions: rat; IV bolus 0.75 mg/kg then IV infusion 50 μg/kg/min; time to occlusion in drug-treated divided by control; 60 minutes monitoring. Here is the method:
The FeCl3-- induced injury to the carotid artery in rats was induced according to the method described by Kurz K. D., Main R. W., Sandusky G. E., Thrombosis Research, 1990; 60:269-280 and Schumacher W. A., et al., J. Pharmacology and Experimental Therapeutics, 1993; 267:1237-1242.
Male, Sprague-Dawley rats (375-410 g) were anesthetized with urethane (1500 mg/kg ip). Animals were laid on a 37° C. heating pad. The carotid artery was exposed through a midline cervical incision. Careful blunt dissection was used to isolate the vessel from the carotid sheath. Using forceps, the artery was lifted to provide sufficient clearance to insert two small pieces of polyethylene tubing (PE-205) underneath it. A temperature probe (Physitemp MT23/3) was placed between one of the pieces of tubing and the artery. Injury was induced by topical application on the carotid artery above the temperature probe of a small disc (3 mm dia.) of Whatman No. 1 filter paper previously dipped in a 35% solution of FeCl3. […] The vessel temperature was monitored for 60 minutes after application of FeCl3 as an indication of blood flow. Vessel temperature changes were recorded on a thermistor (Cole-Palmer Model 08533-41).
The time between the FeCl3 application and the time at which the vessel temperature decreased abruptly (>2.4° C.) was recorded as the time to occlusion of the vessel. […]

Chain of Factor Xa (P00742 235-488 limits assumed): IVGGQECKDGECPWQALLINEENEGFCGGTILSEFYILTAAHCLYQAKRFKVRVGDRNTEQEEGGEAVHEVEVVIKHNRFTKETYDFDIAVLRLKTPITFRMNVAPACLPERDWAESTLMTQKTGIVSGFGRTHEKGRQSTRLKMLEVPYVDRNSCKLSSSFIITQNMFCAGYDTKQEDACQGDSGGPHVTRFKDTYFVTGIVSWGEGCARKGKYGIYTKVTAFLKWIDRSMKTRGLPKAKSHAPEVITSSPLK
Chain of Factor Xa (P00742 41-179 limits assumed): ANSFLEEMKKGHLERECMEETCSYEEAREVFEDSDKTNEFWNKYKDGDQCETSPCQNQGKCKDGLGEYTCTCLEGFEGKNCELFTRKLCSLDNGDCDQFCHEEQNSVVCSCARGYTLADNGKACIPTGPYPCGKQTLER

On human thrombin, `N=C(N)NCCC[C@H](NC(=O)[C@@H]1CC[C@H]2C(=O)N(CCCc3ccccc3)CC(=O)N12)C(=O)c1nccs1` [Example 11, [6S-[6α(R*),8aα]]-1,4-Dioxo-2-(3-phenyl-propyl)-octahydropyrrolo[1,2-a]pyrazine-6-carboxylic acid [4-guanidino-1-(thiazol-2-carbonyl)-butyl]-amide] registered a Ki of 3 nM. The figures for the IC50 against Factor Xa and at trypsin were 30 nM and under 1 nM, respectively. Further, the “Fold Shift in MOT (mean occlusion time)” value in the test with carotid artery is recorded as over 3.3.
